Key:
[1] = Determination of Efflux-Ratio (ER) in Caco-2 cells; details: human, Caco-2, pH 7.4
c-Kit(V654A) = target: T1, c-Kit(V654A) (Homo sapiens, UniProt P10721, V654A); experiment: c-Kit(V654A) assay (33P-ATP filter binding kinase assay); assay type: biochemical; details: recombinant human c-Kit aa 544-end V654A, ATP 200 μM
T1 construct: recombinant human c-Kit, amino acids 544-end containing the V654A mutation; GST (N)
Outline: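 Radiometric filter-binding read-out: substrate 33P incorporation counted by scintillation after P30 filtermat washes in 75 mM phosphoric acid and methanol. Enzyme: N-GST recombinant human c-Kit aa 544-end carrying V654A.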

[2] = target: T2, GIST430/654 cell line expressing mutated constitutively active cKIT receptor tyrosine kinase (Δ560-576 deletion and V654A point mutation) (Homo sapiens, UniProt P10721, DEL560-576/V654A); experiment: Cellular cKIT autophosphorylation (phospho-Y307-cKIT, Luminex bead assay) in GIST430/654 cells; assay type: cell-based; details: compounds 45 min, read-out: GIST 430/654 IC50
T2 construct: endogenous in cells; host or cells: GIST430/654 cells
T2 sequence (P10721 with tags, fused parts or gaps DEL560-576/V654A): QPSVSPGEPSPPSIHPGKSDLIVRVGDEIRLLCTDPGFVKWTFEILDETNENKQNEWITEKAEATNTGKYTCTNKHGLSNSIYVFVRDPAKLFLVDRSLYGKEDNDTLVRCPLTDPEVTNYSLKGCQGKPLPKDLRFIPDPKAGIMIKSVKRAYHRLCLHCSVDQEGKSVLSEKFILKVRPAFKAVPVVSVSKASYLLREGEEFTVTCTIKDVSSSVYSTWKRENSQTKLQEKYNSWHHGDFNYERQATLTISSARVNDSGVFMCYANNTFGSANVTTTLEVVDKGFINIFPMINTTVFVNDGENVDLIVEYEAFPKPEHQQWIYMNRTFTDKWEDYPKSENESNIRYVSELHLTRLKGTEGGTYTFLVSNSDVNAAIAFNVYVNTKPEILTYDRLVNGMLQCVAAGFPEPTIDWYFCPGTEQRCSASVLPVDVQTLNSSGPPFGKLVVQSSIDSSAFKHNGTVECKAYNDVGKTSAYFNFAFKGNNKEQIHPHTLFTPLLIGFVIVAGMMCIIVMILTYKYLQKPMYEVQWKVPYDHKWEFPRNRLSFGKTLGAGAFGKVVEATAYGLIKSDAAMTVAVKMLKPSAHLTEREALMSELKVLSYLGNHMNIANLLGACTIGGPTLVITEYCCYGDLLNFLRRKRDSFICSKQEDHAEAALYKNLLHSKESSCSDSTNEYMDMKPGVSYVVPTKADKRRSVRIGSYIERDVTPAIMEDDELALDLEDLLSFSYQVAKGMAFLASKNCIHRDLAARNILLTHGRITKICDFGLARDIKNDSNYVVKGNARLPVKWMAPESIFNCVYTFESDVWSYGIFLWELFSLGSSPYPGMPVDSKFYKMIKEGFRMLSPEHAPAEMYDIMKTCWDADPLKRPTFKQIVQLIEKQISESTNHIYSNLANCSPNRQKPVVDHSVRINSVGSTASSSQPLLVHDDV
Outline: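 Phospho-Y307 cKIT in lysates was measured on a Luminex bead assay, with total-cKIT capture overnight at 4 °C and phosphospecific plus PE secondary detection. Cells had 45 min exposure to a compound dilution series the day after plating: GIST430 (Δ560-576) or GIST430/654 (Δ560-576/V654A, grown with 100 nM imatinib). IC50 values are relative to 0.3% DMSO-treated cells.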

T1 sequence (P10721 544-976 V654A): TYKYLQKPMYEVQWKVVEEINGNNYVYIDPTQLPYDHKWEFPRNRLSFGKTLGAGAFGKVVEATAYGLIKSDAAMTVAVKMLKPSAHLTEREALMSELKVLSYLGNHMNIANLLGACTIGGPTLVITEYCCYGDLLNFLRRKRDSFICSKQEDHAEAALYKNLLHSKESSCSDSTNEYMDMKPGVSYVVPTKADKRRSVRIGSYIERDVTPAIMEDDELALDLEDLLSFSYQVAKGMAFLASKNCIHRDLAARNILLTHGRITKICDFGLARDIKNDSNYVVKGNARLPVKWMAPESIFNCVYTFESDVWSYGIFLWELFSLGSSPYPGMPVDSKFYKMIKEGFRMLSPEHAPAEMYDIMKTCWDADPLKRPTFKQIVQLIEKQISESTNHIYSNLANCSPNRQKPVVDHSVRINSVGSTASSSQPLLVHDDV

Structure (SMILES)	efflux ratio at 2 h, 1 μM [1]	IC50 (c-Kit(V654A)) [µM]	IC50 [2] [µM]
COc1ccn2c(-c3cc(NCc4ccc(-c5noc(C)n5)cc4)ncn3)cnc2c1 [A26, 6-{7-methoxyimidazo[1,2-a]pyridin-3-yl}-N-{[4-(5-methyl-1,2,4-oxadiazol-3-yl)phenyl]methyl}pyrimidin-4-amine]	< 15	0.0086	0.13
Cn1ncc(-c2ccc(CNc3cc(-c4cnc5cc(OCC6CCN(CC#N)CC6)ccn45)ncn3)cc2)n1 [A189, [4-(3-{6-[4-(2-methyl-2H-[1,2,3]triazol-4-yl)-benzylamino]-pyrimidin-4-yl}-imidazo[1,2-a]pyridin-7-yloxymethyl)-piperidin-1-yl]-acetonitrile]	< 15	0.0098	0.16
Cn1cc(-c2ccc(CNc3cc(-c4cnc5cc(OCCN6CC(C)(C#N)C6)ccn45)ncn3)cc2)cn1 [A206]	< 15	0.0071	0.1
Cc1nc2n(n1)CCN(CCOc1ccn3c(-c4cc(NCc5ccc(-c6cnn(C)c6)cc5)ncn4)cnc3c1)C2 [A204, (6-{7-[2-(2-methyl-5,6-dihydro-8H-[1,2,4]triazolo[1,5-a]pyrazin-7-yl)-ethoxy]-imidazo[1,2-a]pyridin-3-yl}-pyrimidin-4-yl)-[4-(1-methyl-1H-pyrazol-4-yl)-benzyl]-amine]	15 to 50	0.012	0.17
Cn1cc(-c2ccc(CNc3cc(-c4cnc5cc(OCCN6CCn7nccc7C6)ccn45)ncn3)cc2)cn1 [A216, (6-{7-[2-(6,7-dihydro-4H-pyrazolo[1,5-a]pyrazin-5-yl)-ethoxy]-imidazo[1,2-a]pyridin-3-yl}-pyrimidin-4-yl)-[4-(1-methyl-1H-pyrazol-4-yl)-benzyl]-amine]	< 15	0.0082	0.13
COCCOc1ccn2c(-c3cc(NCc4ccc(-c5cnn(C)n5)cc4)ncn3)cnc2c1 [A71, {6-[7-(2-methoxy-ethoxy)-imidazo[1,2-a]pyridin-3-yl]-pyrimidin-4-yl}-[4-(2-methyl-2H-[1,2,3]triazol-4-yl)-benzyl]-amine]	< 15	0.0046	0.045
Cn1cc(-c2ccc(CNc3cc(-c4cnc5cc(-c6cnn(C)c6)ccn45)ncn3)cc2)cn1 [A226, 6-[7-(1-methyl-1H-pyrazol-4-yl)imidazo[1,2-a]pyridin-3-yl]-N-{[4-(1-methyl-1H-pyrazol-4-yl)phenyl]methyl}pyrimidin-4-amine]	< 15	0.0042	0.051
CN1CC2CCC(C1)N2CCOc1ccn2c(-c3cc(NCc4ccc(-c5cnn(C)c5)cc4)ncn3)cnc2c1 [A198, (6-{7-[2-(3-methyl-3,8-diaza-bicyclo[3.2.1]oct-8-yl)-ethoxy]-imidazo[1,2-a]pyridin-3-yl}-pyrimidin-4-yl)-[4-(1-methyl-1H-pyrazol-4-yl)-benzyl]-amine]	15 to 50	0.01	0.12
Cn1cc(-c2ccc(CNc3cc(-c4cnc5cc(OCC6CN(C7COC7)C6)ccn45)ncn3)cc2)cn1 [A183, N-{[4-(1-methyl-1H-pyrazol-4-yl)phenyl]methyl}-6-(7-{[1-(oxetan-3-yl)azetidin-3-yl]methoxy}imidazo[1,2-a]pyridin-3-yl)pyrimidin-4-amine]	< 15	0.0077	0.027
CN1CCN(CCOc2ccn3c(-c4cc(NCc5ccc(-c6cnn(C)c6)cc5)ncn4)cnc3c2)CC1 [A61, (6-{7-[2-(4-methyl-piperazin-1-yl)-ethoxy]-imidazo[1,2-a]pyridin-3-yl}-pyrimidin-4-yl)-[4-(1-methyl-1H-pyrazol-4-yl)-benzyl]-amine]	< 15	0.0065	0.034
CN1CCN(CCOc2ccn3c(-c4cc(NCc5ccc(-c6cnn(C)c6)cc5)ncn4)cnc3c2)C(=O)C1 [A141, 4-methyl-1-[2-({3-[6-({[4-(1-methyl-1H-pyrazol-4-yl)phenyl]methyl}amino)pyrimidin-4-yl]imidazo[1,2-a]pyridin-7-yl}oxy)ethyl]piperazin-2-one]	> 50	0.015	0.085
Cn1cc(-c2ccc(CNc3cc(-c4cnc5cc(OCCN6CCC(F)(F)C6)ccn45)ncn3)cc2)cn1 [A77, 6-{7-[2-(3,3-difluoropyrrolidin-1-yl)ethoxy]imidazo[1,2-a]pyridin-3-yl}-N-{[4-(1-methyl-1H-pyrazol-4-yl)phenyl]methyl}pyrimidin-4-amine]	< 15	0.014	0.04
Cn1cc(-c2ccc(CNc3cc(-c4cnc5cc(OCCN6CCN(C7CC7)CC6)ccn45)ncn3)cc2)cn1 [A197, (6-{7-[2-(4-cyclopropyl-piperazin-1-yl)-ethoxy]-imidazo[1,2-a]pyridin-3-yl}-pyrimidin-4-yl)-[4-(1-methyl-1H-pyrazol-4-yl)-benzyl]-amine]	< 15	0.012	0.15
Cn1cc(-c2ccc(CNc3cc(-c4cnc5cc(OCCS(C)(=O)=O)ccn45)ncn3)cc2)cn1 [A224, {6-[7-(2-methanesulfonyl-ethoxy)-imidazo[1,2-a]pyridin-3-yl]-pyrimidin-4-yl}-[4-(1-methyl-1H-pyrazol-4-yl)-benzyl]-amine]	15 to 50	0.0065	0.099
CN(CCOc1ccn2c(-c3cc(NCc4ccc(-c5cnn(C)c5)cc4)ncn3)cnc2c1)CC(F)(F)F [A208, [4-(1-methyl-1H-pyrazol-4-yl)-benzyl]-[6-(7-{2-[methyl-(2,2,2-trifluoro-ethyl)-amino]-ethoxy}-imidazo[1,2-a]pyridin-3-yl)-pyrimidin-4-yl]-amine]	< 15	0.038	0.23
Cn1cc(-c2ccc(CNc3cc(-c4cnc5cc(N6CCC7(COC7)C6)ccn45)ncn3)cc2)cn1 [A247, [4-(1-methyl-1H-pyrazol-4-yl)-benzyl]-{6-[7-(2-oxa-6-aza-spiro[3.4]oct-6-yl)-imidazo[1,2-a]pyridin-3-yl]-pyrimidin-4-yl}-amine]	< 15	0.0078	0.062

Second part, the compound after the results:

efflux ratio at 2 h, 1 μM [1]	IC50 (c-Kit(V654A)) [µM]	IC50 [2] [µM]	Structure (SMILES)
> 50	0.0061	0.092	Cn1cc(-c2ccc(CNc3cc(-c4cnc5cc(OCCN6CC[S+]([O-])CC6)ccn45)ncn3)cc2)cn1 [A194, [4-(1-methyl-1H-pyrazol-4-yl)-benzyl]-(6-{7-[2-(1-oxo-1|4-thiomorpholin-4-yl)-ethoxy]-imidazo[1,2-a]pyridin-3-yl}-pyrimidin-4-yl)-amine]
< 15	0.0015	0.074	Cc1nc(-c2ccc(CNc3cc(-c4cnc5cc(OCCO)ccn45)ncn3)cc2)co1 [A236, 2-(3-{6-[4-(2-methyl-oxazol-4-yl)-benzylamino]-pyrimidin-4-yl}-imidazo[1,2-a]pyridin-7-yloxy)-ethanol]
> 50	0.014	0.4	Cc1nnc2n1CCN(CCOc1ccn3c(-c4cc(NCc5ccc(-c6cnn(C)c6)cc5)ncn4)cnc3c1)C2 [A221, (6-{7-[2-(3-methyl-5,6-dihydro-8H-[1,2,4]triazolo[4,3-a]pyrazin-7-yl)-ethoxy]-imidazo[1,2-a]pyridin-3-yl}-pyrimidin-4-yl)-[4-(1-methyl-1H-pyrazol-4-yl)-benzyl]-amine]
< 15	0.012	0.084	CN1CCC(Oc2ccn3c(-c4cc(NCc5ccc(-c6cnn(C)c6)cc5)ncn4)cnc3c2)CC1 [A63, {6-[7-(1-methyl-piperidin-4-yloxy)-imidazo[1,2-a]pyridin-3-yl]-pyrimidin-4-yl}-[4-(1-methyl-1H-pyrazol-4-yl)-benzyl]-amine]
> 50	0.0087	0.13	Cn1cc(-c2ccc(CNc3cc(-c4cnc5cc(OCCC6(N)COC6)ccn45)ncn3)cc2)cn1 [A233]
> 50	0.0075	0.5	Cn1cc(-c2ccc(CNc3cc(-c4cnc5cc(OCC6CNC6)ccn45)ncn3)cc2)cn1 [A167, 6-{7-[(azetidin-3-yl)methoxy]imidazo[1,2-a]pyridin-3-yl}-N-{[4-(1-methyl-1H-pyrazol-4-yl)phenyl]methyl}pyrimidin-4-amine]
< 15	0.0085	0.07	Cn1cc(-c2ccc(CNc3cc(-c4cnc5cc(OCCOCCO)ccn45)ncn3)cc2)cn1 [A234, 2-[2-(3-{6-[4-(1-methyl-1H-pyrazol-4-yl)-benzylamino]-pyrimidin-4-yl}-imidazo[1,2-a]pyridin-7-yloxy)-ethoxy]-ethanol]
< 15	0.0016	0.053	COc1ccn2c(-c3cc(NCc4ccc(-c5cocn5)cc4)ncn3)cnc2c1 [A51, [6-(7-methoxy-imidazo[1,2-a]pyridin-3-yl)-pyrimidin-4-yl]-(4-oxazol-4-yl-benzyl)-amine]
> 50	0.004	0.12	Cn1cc(-c2ccc(CNc3cc(-c4cnc5cc(OCC6CCNCC6)ccn45)ncn3)cc2)cn1 [A166, [4-(1-methyl-1H-pyrazol-4-yl)-benzyl]-{6-[7-(piperidin-4-ylmethoxy)-imidazo[1,2-a]pyridin-3-yl]-pyrimidin-4-yl}-amine]

Reference: patent publication US12655142B2 (Merck Patent GmbH, priority 2019, dated 2026)
